Measured values published in ChEMBL document CHEMBL1201862, “PubChem BioAssay data set” (2004).
Activity calls are given as the source filed them.

Assays:
[1] = target: FAD-linked sulfhydryl oxidase ALR (Homo sapiens, UniProt P55789); experiment: ALR-catalysed DTT oxidation blockers – biochemical, H2O2 detection, luminescence, cherry-pick, dose response (AID 493248)
[2] = target: T1, Rac GTPase-activating protein 1 (Homo sapiens, UniProt Q9H0H5); experiment: blockers of MgcRacGAP-driven Rac1 GTP hydrolysis – biochemical, ADP Hunter fluorescence, primary and confirmatory, confirmation (AID 624330); assay type: functional
T1 sequence (Q9H0H5 whole entry): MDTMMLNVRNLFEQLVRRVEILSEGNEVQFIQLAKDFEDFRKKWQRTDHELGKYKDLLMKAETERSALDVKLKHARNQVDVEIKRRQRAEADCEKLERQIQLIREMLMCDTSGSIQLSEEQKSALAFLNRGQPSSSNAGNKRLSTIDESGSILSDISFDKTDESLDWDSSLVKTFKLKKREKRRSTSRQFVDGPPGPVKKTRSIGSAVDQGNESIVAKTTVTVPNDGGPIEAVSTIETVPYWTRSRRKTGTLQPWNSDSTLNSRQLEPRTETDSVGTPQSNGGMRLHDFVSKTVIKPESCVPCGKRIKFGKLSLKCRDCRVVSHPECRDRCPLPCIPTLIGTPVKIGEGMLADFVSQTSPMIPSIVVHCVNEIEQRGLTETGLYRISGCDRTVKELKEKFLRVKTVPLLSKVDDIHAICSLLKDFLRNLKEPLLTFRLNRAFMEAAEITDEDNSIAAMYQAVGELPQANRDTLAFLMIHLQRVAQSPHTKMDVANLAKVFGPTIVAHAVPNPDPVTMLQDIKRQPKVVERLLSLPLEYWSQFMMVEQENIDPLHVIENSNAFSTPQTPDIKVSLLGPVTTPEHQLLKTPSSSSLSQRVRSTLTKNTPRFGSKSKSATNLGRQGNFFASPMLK

[3] = target: Glyceraldehyde-3-phosphate dehydrogenase (Homo sapiens, UniProt P04406)
Large T antigen = Large T antigen (Simian virus 40, UniProt P03070); assay type: functional, Betapolyomavirus macacae;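 note: Confirmatory-stage PubChem screen for compounds that inhibit SV40 T antigen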
[4] = NIH-3T3 fibroblast cytotoxicity, dose response, cytotoxicity control, cell-based, fluorescence, Alamar Blue, secondary assay (AID 2327); assay type: functional;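 note: NIH-3T3 mouse fibroblasts cultured with fluconazole at 8 µg/mL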
[5] = tested on: Streptococcus sp. 'group A'; experiment: Streptococcus pyogenes SK(-)GAS viability under kanamycin – luminescence, BacTiterGlo, confirmation, counter-screen for streptokinase expression inhibitor project, dose response (AID 1900); assay type: functional, organism-based
Streptokinase A = target: T2, Streptokinase A (Streptococcus pyogenes serotype M1, UniProt P10520); experiment: viability-normalized secreted streptokinase activity reduction – plasminogen activation absorbance, OD405, dose response (AID 1914); assay type: functional, Streptococcus pyogenes M1 GAS;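 note: secreted streptokinase activity via plasminogen activation per viability signal from cell pellet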
T2 sequence (P10520 whole entry): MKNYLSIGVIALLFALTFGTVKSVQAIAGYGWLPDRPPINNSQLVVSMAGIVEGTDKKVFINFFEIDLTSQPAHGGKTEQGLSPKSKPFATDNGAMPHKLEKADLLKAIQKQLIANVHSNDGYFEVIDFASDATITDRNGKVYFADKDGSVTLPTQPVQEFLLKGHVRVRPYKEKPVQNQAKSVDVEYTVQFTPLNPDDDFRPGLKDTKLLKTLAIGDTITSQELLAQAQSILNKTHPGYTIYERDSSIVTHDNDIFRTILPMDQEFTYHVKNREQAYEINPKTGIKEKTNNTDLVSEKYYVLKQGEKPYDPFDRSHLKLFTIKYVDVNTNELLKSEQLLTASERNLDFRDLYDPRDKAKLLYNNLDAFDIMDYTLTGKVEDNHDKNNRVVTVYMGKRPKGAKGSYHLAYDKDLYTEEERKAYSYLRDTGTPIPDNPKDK

[6] = fluconazole-exposed Candida albicans growth modulators – fluorescence, retest, confirmation (AID 2467); assay type: functional, cell-based
Streptococcus = experiment: GAS UMAA2166 growth inhibition – luminescence, BacTiterGlo, counter-screen for streptokinase expression inhibitor project, dose response (AID 1915); assay type: functional, organism-based;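 note: potency for reduction of bacterial viability or growth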
H9c2 = experiment: cells; assay type: functional, cell-based; conditions: Rattus norvegicus, H9c2, Myocardium;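 note: confirmatory concentration-response retest of ultra-high-throughput screening hits for modulation of myocardial damage; cell death induced by hydrogen peroxide oxidative stress; compound pretreatment for 60 min then peroxide exposure for 2 h; potency is for protecting the cells against peroxide damage rather than for killing them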
[7] = target: T3, Heat shock factor protein 1 (Mus musculus, UniProt P38532); experiment: enhancement of HSF1-driven luciferase signal – cell-based, NIH3T3, luminescence, dose retest, confirmation (AID 435004); assay type: functional;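 note: stress induced by proteasome inhibitor MG132 added 30 min after compound; luciferase reporter driven by HSF1 response element in NIH3T3 cells; actives raise luminescence as potentiators of the MG132 stress response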
T3 sequence (P38532 whole entry): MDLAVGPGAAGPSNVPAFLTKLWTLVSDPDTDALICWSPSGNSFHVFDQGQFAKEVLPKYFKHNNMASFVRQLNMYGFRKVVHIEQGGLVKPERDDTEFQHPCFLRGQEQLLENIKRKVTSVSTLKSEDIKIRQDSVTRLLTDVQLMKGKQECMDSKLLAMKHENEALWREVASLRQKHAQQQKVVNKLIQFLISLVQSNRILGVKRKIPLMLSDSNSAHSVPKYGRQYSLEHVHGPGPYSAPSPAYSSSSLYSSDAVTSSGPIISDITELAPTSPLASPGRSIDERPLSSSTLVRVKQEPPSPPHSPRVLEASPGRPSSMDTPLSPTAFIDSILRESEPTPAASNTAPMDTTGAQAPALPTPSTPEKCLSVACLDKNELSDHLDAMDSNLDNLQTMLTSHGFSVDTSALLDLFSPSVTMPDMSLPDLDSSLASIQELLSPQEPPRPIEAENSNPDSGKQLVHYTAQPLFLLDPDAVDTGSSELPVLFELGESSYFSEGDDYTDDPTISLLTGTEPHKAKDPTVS

Protein skinhead-1 = target: T4, Protein skinhead-1 (Caenorhabditis elegans, UniProt P34707); assay type: functional
T4 sequence (P34707 whole entry): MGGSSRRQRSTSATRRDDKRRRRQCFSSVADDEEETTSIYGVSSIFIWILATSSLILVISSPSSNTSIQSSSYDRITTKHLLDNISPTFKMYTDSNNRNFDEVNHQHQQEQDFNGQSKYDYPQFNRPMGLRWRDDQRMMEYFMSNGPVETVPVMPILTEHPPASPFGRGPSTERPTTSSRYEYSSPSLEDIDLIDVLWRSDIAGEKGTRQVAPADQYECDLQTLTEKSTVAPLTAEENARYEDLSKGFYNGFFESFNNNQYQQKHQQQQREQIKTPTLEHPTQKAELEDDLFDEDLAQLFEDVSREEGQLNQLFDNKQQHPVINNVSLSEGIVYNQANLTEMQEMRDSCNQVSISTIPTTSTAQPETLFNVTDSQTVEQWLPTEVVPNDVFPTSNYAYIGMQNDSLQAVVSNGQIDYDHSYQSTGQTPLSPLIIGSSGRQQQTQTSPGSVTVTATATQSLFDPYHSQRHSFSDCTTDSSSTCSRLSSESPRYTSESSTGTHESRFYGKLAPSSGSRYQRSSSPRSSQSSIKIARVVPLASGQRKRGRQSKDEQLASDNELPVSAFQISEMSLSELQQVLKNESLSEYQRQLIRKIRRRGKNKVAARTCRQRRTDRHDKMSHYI

Paired box protein Pax-8 = Paired box protein Pax-8 (Homo sapiens, UniProt Q06710); experiment: PAX8 transcriptional activity inhibition in RMG-I – RMG-I cells, luciferase, cherry-pick, dose response (AID 687027); assay type: functional, cell-based;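 note: luciferase reporter driven by Pax8 target thyroperoxidase promoter measured by SteadyGlo luminescence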
[8] = reduction of Shn3 3'UTR-driven luciferase in osteoblasts – cell-based, Clone20 osteoblasts, firefly luciferase, cherry-picked, dose response (AID 624132); assay type: functional;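 note: firefly luciferase luminescence from reporter carrying the Shn3 3'UTR in osteoblasts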
[9] = non-specific 3'UTR reporter inhibition in Clone20-Shn3RL – cell-based, Renilla luciferase, cherry-picked, counter-screen for Shn3 inhibitor project, dose response (AID 624133); assay type: functional
[10] = target: T3, Heat shock factor protein 1; experiment: decrease of HSF1-responsive luciferase luminescence – cell-based, NIH3T3, dose retest, confirmation (AID 2382); assay type: functional;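 note: NIH3T3 fibroblasts with HSF1-driven luciferase reporter stressed by proteasome inhibitor MG132; luminescence from HSF1-driven luciferase expression after 8 hours of MG132 stress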
[11] = Trypanosoma cruzi growth suppression in host cells – NIH3T3 host cells, beta-gal luminescence, confirmation (AID 2044); assay type: functional, cell-based;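 note: intracellular parasites grown in NIH/3T3 mouse fibroblasts as host cells; luminescent beta-galactosidase reporter signal from transgenic T. cruzi replicating inside host cells; inhibitors lower the luminescence signal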
[12] = NIH3T3 cell viability loss – ATP luminescence, mouse fibroblasts, counter-screen, dose response (AID 2010); assay type: functional, cell-based;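 note: cells exposed to compound for about 90 hours before reading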

FAD-linked sulfhydryl oxidase ALR, sequence (P55789 whole entry): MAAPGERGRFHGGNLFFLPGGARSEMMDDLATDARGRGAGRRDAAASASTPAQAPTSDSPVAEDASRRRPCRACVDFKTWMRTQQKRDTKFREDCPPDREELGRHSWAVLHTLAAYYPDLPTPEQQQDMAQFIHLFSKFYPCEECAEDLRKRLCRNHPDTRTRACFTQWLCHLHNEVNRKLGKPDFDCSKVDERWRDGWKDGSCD
Glyceraldehyde-3-phosphate dehydrogenase, sequence (P04406 whole entry): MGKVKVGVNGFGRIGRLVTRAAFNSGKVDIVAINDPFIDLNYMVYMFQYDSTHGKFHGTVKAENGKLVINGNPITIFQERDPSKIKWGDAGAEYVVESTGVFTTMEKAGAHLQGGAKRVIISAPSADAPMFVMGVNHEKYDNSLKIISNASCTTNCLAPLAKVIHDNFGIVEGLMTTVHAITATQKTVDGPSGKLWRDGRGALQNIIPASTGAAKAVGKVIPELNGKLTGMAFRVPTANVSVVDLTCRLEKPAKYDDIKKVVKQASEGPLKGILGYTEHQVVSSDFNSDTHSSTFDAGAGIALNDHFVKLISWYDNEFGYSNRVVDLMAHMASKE
Large T antigen, sequence (P03070 whole entry): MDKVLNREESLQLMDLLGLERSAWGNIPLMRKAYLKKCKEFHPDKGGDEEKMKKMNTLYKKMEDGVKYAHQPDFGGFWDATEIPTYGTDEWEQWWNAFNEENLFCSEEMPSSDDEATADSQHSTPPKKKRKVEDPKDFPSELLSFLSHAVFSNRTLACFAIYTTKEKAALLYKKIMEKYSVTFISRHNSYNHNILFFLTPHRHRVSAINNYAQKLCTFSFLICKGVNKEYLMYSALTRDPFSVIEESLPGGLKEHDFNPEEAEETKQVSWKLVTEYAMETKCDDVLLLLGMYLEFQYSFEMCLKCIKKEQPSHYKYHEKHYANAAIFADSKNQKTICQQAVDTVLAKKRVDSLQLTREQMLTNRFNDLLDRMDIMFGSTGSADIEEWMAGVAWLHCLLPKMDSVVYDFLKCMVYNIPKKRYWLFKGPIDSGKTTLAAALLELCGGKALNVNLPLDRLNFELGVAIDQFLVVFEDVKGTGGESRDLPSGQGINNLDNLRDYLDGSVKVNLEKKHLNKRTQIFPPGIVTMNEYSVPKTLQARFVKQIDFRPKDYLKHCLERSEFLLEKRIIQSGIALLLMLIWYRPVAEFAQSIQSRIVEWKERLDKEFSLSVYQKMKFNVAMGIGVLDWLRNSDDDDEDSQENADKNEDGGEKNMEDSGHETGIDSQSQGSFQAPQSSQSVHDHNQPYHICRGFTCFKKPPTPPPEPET
Paired box protein Pax-8, sequence (Q06710 whole entry): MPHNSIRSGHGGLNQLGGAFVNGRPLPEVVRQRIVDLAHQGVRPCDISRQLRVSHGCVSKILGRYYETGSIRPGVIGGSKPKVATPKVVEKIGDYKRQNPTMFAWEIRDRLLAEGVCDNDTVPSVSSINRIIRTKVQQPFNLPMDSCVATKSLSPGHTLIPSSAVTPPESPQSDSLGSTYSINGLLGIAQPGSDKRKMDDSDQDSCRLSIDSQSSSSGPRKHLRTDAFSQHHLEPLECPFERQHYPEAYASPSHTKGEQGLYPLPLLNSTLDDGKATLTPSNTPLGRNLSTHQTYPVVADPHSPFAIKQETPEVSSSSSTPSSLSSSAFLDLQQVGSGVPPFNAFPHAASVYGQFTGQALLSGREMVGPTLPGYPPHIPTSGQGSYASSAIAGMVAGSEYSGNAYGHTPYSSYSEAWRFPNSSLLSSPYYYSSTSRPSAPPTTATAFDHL

Compound	AC50 [1]	IC50 (H9c2)	other results
Cc1nc(C)c(CC(=O)N/N=C/c2ccc(O)cc2)c(O)n1	2.17 µM (active)	–	IC50 [2]: 69.6 µM (active)
Cc1cccc(N2C(=O)C(Cl)=C(N3CCN(Cc4ccc5c(c4)OCO5)CC3)C2=O)c1	–	–	IC50 [3]: > 50 µM (inconclusive)
CC(=O)N1CCN=C1SCc1c(F)cccc1Cl	0.631 µM (active)	–	–
COc1ccc(Cc2nc3ccccc3n2CC(=O)N/N=C/c2ccc(O)cc2)cc1OC	0.901 µM (active)	–	IC50 (Large T antigen): > 100 µM (active)
O=C(COc1ccc(F)cc1)Nc1nc(-c2ccccn2)cs1	–	16.1 µM (active)	EC50 [4]: > 150 µM (inactive); EC50 [5]: 7.19 µM (active); EC50 (Streptokinase A): > 150 µM (not active); EC50 [6]: 2.59 µM (active); EC50 (Streptococcus): 16.1 µM (active)
O=S(=O)(Nc1ccc(N2CCCCC2)cc1)c1ccccc1F	2.08 µM (active)	–	–
Cc1cc(C)cc(N(CCC#N)C(=O)COC(=O)Cn2[nH]c(=O)c3ccccc3c2=O)c1	–	> 79 µM (inactive)	–
COc1ccc(F)cc1S(=O)(=O)Nc1cnc2ccccc2c1	–	–	IC50 [3]: > 10 µM (inconclusive)
CC(C)CN1C(=O)NC(NS(=O)(=O)c2ccc(N)cc2)(C(F)(F)F)C1=O (configuration not stated)	0.73 µM (active)	–	–
O=C1C(Cl)=C(N2CCN(CCOCCO)CC2)C(=O)N1c1ccc(Cl)nc1	–	–	IC50 [3]: > 50 µM (inconclusive)
N#CCC(=O)Nc1ccc(C(=O)Nc2cccnc2)cc1	0.87 µM (active)	–	–
O=C(/C=C/Nc1ccccc1)c1ccccc1	–	–	EC50 [7]: > 260 µM (inconclusive); IC50 (Protein skinhead-1): > 100 µM (inactive)
COc1cc2c(OC)c3ccoc3nc2cc1O	0.49 µM (active)	–	IC50 (Large T antigen): 20 µM (active)
O=C(O)c1cc(S(=O)(=O)Nc2cccc(Cl)c2)ccc1O	–	–	IC50 [3]: > 100 µM (not active)
Cc1cc(C)c(C(=O)/C=C/c2cccc3ccccc23)c(O)n1	–	–	EC50 [7]: 6.62 µM (active); AC50 (Paired box protein Pax-8): 5.27 µM (active)
Cc1ccc(S(=O)(=O)CCC(=O)OCC(=O)Nc2cc(S(=O)(=O)N3CCOCC3)ccc2C)cc1	–	–	AC50 [8]: 17.8 µM (active); AC50 [9]: 1.76 µM (active)
Nc1ccc2c(c1)nc(O)c1ccccc12	–	8.49 µM (active)	–
CCN(CC(=O)Nc1c(F)cccc1F)C(=O)CCc1nc(O)c2ccccc2n1	–	> 79 µM (inactive)	–
CN(NC1CC(=O)N(c2ccccc2)C1=O)c1ccccc1 (configuration not stated)	6.83 µM (active)	–	–
CC(C)(C)OC(=O)NCCCCCNC(=O)c1[nH]cnc1C(=O)Nc1ccc(Cl)cc1	–	> 79 µM (inactive)	–
COc1ccc(-c2cc(=O)oc3c(O)c(O)ccc23)cc1	1.35 µM (active)	–	IC50 (Large T antigen): 8.81 µM (active)

Compound	AC50 [1]	IC50 (H9c2)	other results
CCCN1CCN(C(=O)CCc2nnc3ccc(N4CCN(c5cccc(OC)c5)CC4)nn23)CC1	–	> 79 µM (inactive)	–
O=Cc1ccc(OCc2cccc(C(F)(F)F)c2)cc1O	–	> 79 µM (inactive)	–
COc1ccc(C=NNc2nc3c(=O)n(C)c(=O)n(C)c3[nH]2)cc1	–	> 79 µM (inactive)	–
c1ccc(CN2CCC(=NNc3nc4ccccc4[nH]3)CC2)cc1	2.31 µM (active)	–	–
O=C(c1ccc(-c2nc3ccccc3s2)o1)N1CCN(c2ccccc2O)CC1	–	> 79 µM (inactive)	–
O=C(COc1ccc(F)cc1Cl)Nc1nc(-c2ccccn2)cs1	–	> 79 µM (inactive)	EC50 [5]: 0.751 µM (active); EC50 [10]: 41.4 µM (active); EC50 [11]: 1.57 µM (active); EC50 [12]: 3.74 µM (active); EC50 (Streptococcus): 3.29 µM (active)
Cc1ccc(S(=O)(=O)NN2C(=O)/C(=C/c3cccnc3)SC2=S)cc1	4.96 µM (active)	–	–
COc1cc(/C=N/NC(=O)CNC(=O)c2ccco2)ccc1O	3.47 µM (active)	–	IC50 (Large T antigen): 6.31 µM (active); IC50 [2]: 38.5 µM (active)
COc1cc(/C=N/N2C(C)CCCC2C)cc(Br)c1O (configuration not stated)	0.495 µM (active)	–	–
Cc1cc(C)cc(OCC(=O)Nc2cccc(-c3nnc(-c4ccco4)o3)c2)c1	–	9.22 µM (active)	–
NS(=O)(=O)c1ccc(NS(=O)(=O)c2ccc(O)c(C(=O)O)c2)cc1	–	–	IC50 [3]: > 100 µM (not active)
COC(=O)Oc1ccc(/C=C/C(=O)OC(C)C)cc1OC(=O)OC	–	> 79 µM (inactive)	AC50 [8]: 3.29 µM (active); AC50 [9]: 2.56 µM (active)
Cc1cc2ncn(C(=O)c3ccc(F)cc3)c2cc1C	5.34 µM (active)	–	–
CC(=O)Nc1cccc(-c2cc(NC=O)c3ncc(-c4cccc(C(C)=O)c4)n3c2)c1	–	> 79 µM (inactive)	–
COc1cc(OC)cc(C(=O)NNC(=O)CCc2nc(O)c3ccccc3n2)c1	–	19.6 µM (active)	–
C[C@@H]1CCCCO[C@@H](CN(C)C(=O)Nc2ccc(C(F)(F)F)cc2)[C@H](C)CN([C@@H](C)CO)C(=O)c2cc(NC(=O)Nc3ccc(C(F)(F)F)cc3)ccc2O1	–	–	AC50 (Paired box protein Pax-8): 2.31 µM (active)
C[C@@H]1CN([C@H](C)CO)S(=O)(=O)c2ccc(C#CC3CCCC3)cc2O[C@@H]1CN(C)C(=O)Cc1ccncc1	–	–	AC50 (Paired box protein Pax-8): 16.5 µM (active)
COC(=O)c1ccccc1N=Nc1c(N)n[nH]c1N	6.65 µM (active)	–	–
Cc1[nH]c(C)c(S(=O)(=O)NCc2ccc(N(C)C)cc2)c1C(=O)N1CCCC1	16.1 µM (active)	–	–
O=C(NCC1CCCO1)C(c1ccc(F)cc1)N(C(=O)Cn1nnc(-c2ccc(F)cc2)n1)c1cccc(O)c1 (configuration not stated)	–	> 79 µM (inactive)	–
